Experimental data reported in ChEMBL document CHEMBL2434896, “Carbonic anhydrase inhibitors. Synthesis of heterocyclic 4-substituted pyridine-3-sulfonamide derivatives and their inhibition of the human cytosolic isozymes I and II and transmembrane tumor-associated isozymes IX and XII” (Eur J Med Chem, 2013).
Active and inactive are the calls of the source. The calls are words filed in the database; no cut-off is given here.

Tests used:
RPMI-8226 = assay: Growth inhibition of human RPMI8226 cells at 10 uM after 48 hrs by sulforhodamine B assay; format: functional
MDA-MB-468 = assay: Growth inhibition of human MDA-MB-468 cells at 10 uM after 48 hrs by sulforhodamine B assay; format: functional
786-0 = assay: Growth inhibition of human 786-0 cells at 10 uM after 48 hrs by sulforhodamine B assay; format: functional
COLO 205 = assay: Growth inhibition of human COLO205 cells at 10 uM after 48 hrs by sulforhodamine B assay; format: functional
CCRF-CEM = assay: Growth inhibition of human CCRF-CEM cells at 10 uM after 48 hrs by sulforhodamine B assay; format: functional
RXF 393 = assay: Growth inhibition of human RXF393 cells at 10 uM after 48 hrs by sulforhodamine B assay; format: functional
UO-31 = assay: Growth inhibition of human UO31 cells at 10 uM after 48 hrs by sulforhodamine B assay; format: functional; conditions: UO-31, 48 h, read-out: GI
HOP-92 = assay: Growth inhibition of human HOP92 cells at 10 uM after 48 hrs by sulforhodamine B assay; format: functional
Malme-3M = assay: Growth inhibition of human MALME-3M cells at 10 uM after 48 hrs by sulforhodamine B assay; format: functional
T47D = assay: Growth inhibition of human T47D cells at 10 uM after 48 hrs by sulforhodamine B assay; format: functional; conditions: read-out: GI
ACHN = assay: Growth inhibition of human ACHN cells at 10 uM after 48 hrs by sulforhodamine B assay; format: functional
SK-OV-3 = assay: Growth inhibition of human SKOV3 cells at 10 uM after 48 hrs by sulforhodamine B assay; format: functional
M14 = assay: Growth inhibition of human M14 cells at 10 uM after 48 hrs by sulforhodamine B assay; format: functional
NCI-H522 = assay: Growth inhibition of human NCI-H522 cells at 10 uM after 48 hrs by sulforhodamine B assay; format: functional
U-251 = assay: Growth inhibition of human U251 cells at 10 uM after 48 hrs by sulforhodamine B assay; format: functional
NCI-H23 = assay: Growth inhibition of human NCI-H23 cells at 10 uM after 48 hrs by sulforhodamine B assay; format: functional
TK-10 = assay: Growth inhibition of human TK10 cells at 10 uM after 48 hrs by sulforhodamine B assay; format: functional
HT-29 = assay: Growth inhibition of human HT-29 cells at 10 uM after 48 hrs by sulforhodamine B assay; format: functional
UACC-257 = assay: Growth inhibition of human UACC257 cells at 10 uM after 48 hrs by sulforhodamine B assay; format: functional
MDA-MB-231 = assay: Growth inhibition of human MDA-MB-231 cells at 10 uM after 48 hrs by sulforhodamine B assay; format: functional
SK-MEL-5 = assay: Growth inhibition of human SK-MEL-5 cells at 10 uM after 48 hrs by sulforhodamine B assay; format: functional
SN12C = assay: Growth inhibition of human SN12C cells at 10 uM after 48 hrs by sulforhodamine B assay; format: functional
BT-549 = assay: Growth inhibition of human BT549 cells at 10 uM after 48 hrs by sulforhodamine B assay; format: functional; conditions: BT-549, 48 h, read-out: GI
SK-MEL-2 = assay: Growth inhibition of human SK-MEL-2 cells at 10 uM after 48 hrs by sulforhodamine B assay; format: functional
HOP-62 = assay: Growth inhibition of human HOP62 cells at 10 uM after 48 hrs by sulforhodamine B assay; format: functional
UACC-62 = assay: Growth inhibition of human UACC62 cells at 10 uM after 48 hrs by sulforhodamine B assay; format: functional
SW-620 = assay: Growth inhibition of human SW620 cells at 10 uM after 48 hrs by sulforhodamine B assay; format: functional
SF-295 = assay: Growth inhibition of human SF295 cells at 10 uM after 48 hrs by sulforhodamine B assay; format: functional
SK-MEL-28 = assay: Growth inhibition of human SK-MEL-28 cells at 10 uM after 48 hrs by sulforhodamine B assay; format: functional, cell-based
NCI-H322M = assay: Growth inhibition of human NCI-H322M cells at 10 uM after 48 hrs by sulforhodamine B assay; format: functional
SF-268 = assay: Growth inhibition of human SF268 cells at 10 uM after 48 hrs by sulforhodamine B assay; format: functional
NCI-H460 = assay: Growth inhibition of human NCI-H460 cells at 10 uM after 48 hrs by sulforhodamine B assay; format: functional
DU-145 = assay: Growth inhibition of human DU145 cells at 10 uM after 48 hrs by sulforhodamine B assay; format: functional
SR = assay: Growth inhibition of human SR cells at 10 uM after 48 hrs by sulforhodamine B assay; format: functional; conditions: read-out: GI
OVCAR-4 = assay: Growth inhibition of human OVCAR4 cells at 10 uM after 48 hrs by sulforhodamine B assay; format: functional
HCT-15 = assay: Growth inhibition of human HCT15 cells at 10 uM after 48 hrs by sulforhodamine B assay; format: functional
MOLT-4 = assay: Growth inhibition of human MOLT4 cells at 10 uM after 48 hrs by sulforhodamine B assay; format: functional
K562 = assay: Growth inhibition of human K562 cells at 10 uM after 48 hrs by sulforhodamine B assay; format: functional
HCC 2998 = assay: Growth inhibition of human HCC2998 cells at 10 uM after 48 hrs by sulforhodamine B assay; format: functional
SNB-19 = assay: Growth inhibition of human SNB19 cells at 10 uM after 48 hrs by sulforhodamine B assay; format: functional
OVCAR-8 = assay: Growth inhibition of human OVCAR8 cells at 10 uM after 48 hrs by sulforhodamine B assay; format: functional
OVCAR-5 = assay: Growth inhibition of human OVCAR5 cells at 10 uM after 48 hrs by sulforhodamine B assay; format: functional
LOX IMVI = assay: Growth inhibition of human LOXIMVI cells at 10 uM after 48 hrs by sulforhodamine B assay; format: functional; conditions: read-out: GI
HCT-116 = assay: Growth inhibition of human HCT116 cells at 10 uM after 48 hrs by sulforhodamine B assay; format: functional
PC-3 = assay: Growth inhibition of human PC3 cells at 10 uM after 48 hrs by sulforhodamine B assay; format: functional; conditions: PC-3, 48 h, read-out: GI
Hs-578T = assay: Growth inhibition of human Hs 578T cells at 10 uM after 48 hrs by sulforhodamine B assay; format: functional

NS(=O)(=O)c1cnccc1N1CCN(c2ccccn2)CC1
inhibition of growth at 10 µM (RPMI-8226; RPMI-8226, 48 h, read-out: GI): 5% | inhibition of growth at 10 µM (MDA-MB-468; MDA-MB-468, 48 h, read-out: GI): 1% | inhibition of growth at 10 µM (786-0; 786-0, 48 h, read-out: GI): 2% | growth inhibition (GI) (COLO 205): inactive | inhibition of growth at 10 µM (CCRF-CEM; read-out: GI): 5% | growth inhibition (GI) (RXF 393): inactive | inhibition of growth at 10 µM (UO-31): 11% | inhibition of growth at 10 µM (HOP-92; HOP-92, 48 h, read-out: GI): 11% | inhibition of growth at 10 µM (Malme-3M; read-out: GI): 8% | inhibition of growth at 10 µM (T47D): 8% | growth inhibition (GI) (ACHN): inactive | growth inhibition (GI) (SK-OV-3): inactive | growth inhibition (GI) (M14): inactive | growth inhibition (GI) (NCI-H522): inactive | inhibition of growth at 10 µM (U-251; U-251, 48 h, read-out: GI): 6% | inhibition of growth at 10 µM (NCI-H23; NCI-H23, 48 h, read-out: GI): 4% | growth inhibition (GI) (TK-10): inactive | growth inhibition (GI) (HT-29): inactive | inhibition of growth at 10 µM (UACC-257; UACC-257, 48 h, read-out: GI): 2% | growth inhibition (GI) (MDA-MB-231): inactive | growth inhibition (GI) (SK-MEL-5): inactive | inhibition of growth at 10 µM (SN12C; read-out: GI): 4% | inhibition of growth at 10 µM (BT-549): 6% | inhibition of growth at 10 µM (SK-MEL-2; SK-MEL-2, 48 h, read-out: GI): 1% | growth inhibition (GI) (HOP-62): inactive | growth inhibition (GI) (UACC-62): inactive | inhibition of growth at 10 µM (SW-620; SW-620, 48 h, read-out: GI): 1% | growth inhibition (GI) (SF-295): inactive | growth inhibition (GI) (SK-MEL-28): inactive | growth inhibition (GI) (NCI-H322M): inactive | growth inhibition (GI) (SF-268): inactive | growth inhibition (GI) (NCI-H460): inactive | inhibition of growth at 10 µM (DU-145; DU-145, 48 h, read-out: GI): 8% | inhibition of growth at 10 µM (SR): 12% | growth inhibition (GI) (OVCAR-4): inactive | growth inhibition (GI) (HCT-15): inactive | growth inhibition (GI) (MOLT-4): inactive | inhibition of growth at 10 µM (K562; K562, 48 h, read-out: GI): 4% | growth inhibition (GI) (HCC 2998): inactive | growth inhibition (GI) (SNB-19): inactive | inhibition of growth at 10 µM (OVCAR-8; OVCAR-8, 48 h, read-out: GI): 12% | growth inhibition (GI) (OVCAR-5): inactive | inhibition of growth at 10 µM (LOX IMVI): 9% | inhibition of growth at 10 µM (HCT-116; HCT-116, 48 h, read-out: GI): 1% | inhibition of growth at 10 µM (PC-3): 1%

NS(=O)(=O)c1cnccc1N1CCN(Cc2ccc3c(c2)OCO3)CC1
growth inhibition (GI) (RPMI-8226): inactive | growth inhibition (GI) (MDA-MB-468): inactive | growth inhibition (GI) (Hs-578T): inactive | growth inhibition (GI) (786-0): inactive | growth inhibition (GI) (COLO 205): inactive | growth inhibition (GI) (CCRF-CEM): inactive | growth inhibition (GI) (RXF 393): inactive | inhibition of growth at 10 µM (UO-31): 13% | growth inhibition (GI) (HOP-92): inactive | growth inhibition (GI) (Malme-3M): inactive | inhibition of growth at 10 µM (T47D): 6% | growth inhibition (GI) (ACHN): inactive | growth inhibition (GI) (SK-OV-3): inactive | inhibition of growth at 10 µM (M14; M14, 48 h, read-out: GI): 2% | inhibition of growth at 10 µM (NCI-H522; NCI-H522, 48 h, read-out: GI): 2% | growth inhibition (GI) (U-251): inactive | growth inhibition (GI) (NCI-H23): inactive | growth inhibition (GI) (TK-10): inactive | growth inhibition (GI) (HT-29): inactive | growth inhibition (GI) (UACC-257): inactive | growth inhibition (GI) (MDA-MB-231): inactive | growth inhibition (GI) (SK-MEL-5): inactive | growth inhibition (GI) (SN12C): inactive | inhibition of growth at 10 µM (BT-549): 7% | growth inhibition (GI) (SK-MEL-2): inactive | inhibition of growth at 10 µM (HOP-62; HOP-62, 48 h, read-out: GI): 5% | growth inhibition (GI) (UACC-62): inactive | growth inhibition (GI) (SW-620): inactive | growth inhibition (GI) (SF-295): inactive | growth inhibition (GI) (SK-MEL-28): inactive | growth inhibition (GI) (NCI-H322M): inactive | growth inhibition (GI) (SF-268): inactive | growth inhibition (GI) (NCI-H460): inactive | growth inhibition (GI) (DU-145): inactive | inhibition of growth at 10 µM (SR): 9% | growth inhibition (GI) (OVCAR-4): inactive | inhibition of growth at 10 µM (HCT-15; HCT-15, 48 h, read-out: GI): 1% | inhibition of growth at 10 µM (MOLT-4; MOLT-4, 48 h, read-out: GI): 5% | growth inhibition (GI) (K562): inactive | growth inhibition (GI) (HCC 2998): inactive | inhibition of growth at 10 µM (SNB-19; SNB-19, 48 h, read-out: GI): 3% | growth inhibition (GI) (OVCAR-8): inactive | inhibition of growth at 10 µM (OVCAR-5; OVCAR-5, 48 h, read-out: GI): 2% | inhibition of growth at 10 µM (LOX IMVI): 8% | growth inhibition (GI) (HCT-116): inactive | inhibition of growth at 10 µM (PC-3): 1%
